Experimental data reported in patent US20250163104A1, “MACROCYCLIC IMMUNOMODULATORS” (priority 2021, published 2025).
Where a SMILES comes first, the peptide text is derived from it. Bridges are numbered along the chain shown (N, C = ends). [ ]: non-standard residue; d: D form. The star is where a group is joined. Phe(4-COOH) = N[C@@H](Cc1ccc(C(=O)O)cc1)C(=O)O; Bip = N[C@@H](Cc1ccc(-c2ccccc2)cc1)C(=O)O; Phe(4-NH2) = Nc1ccc(C[C@H](N)C(=O)O)cc1; Phe(3-Me) = Cc1cccc(C[C@H](N)C(=O)O)c1; 2Thi = N[C@@H](Cc1cccs1)C(=O)O; Cha = N[C@@H](CC1CCCCC1)C(=O)O; Cit = NC(=O)NCCC[C@H](N)C(=O)O; Chg = N[C@H](C(=O)O)C1CCCCC1; Carboxymethyl = O=C(O)C*; Nle = CCCC[C@H](N)C(=O)O; Orn = NCCC[C@H](N)C(=O)O; Pra = C#CC[C@H](N)C(=O)O; Dab = NCC[C@H](N)C(=O)O; Dap = NC[C@H](N)C(=O)O

target: T1, human PD-1 / PD-L1-Ig binding on Jurkat cell line over-expressing human PD-1 (Jurkat-PD-1) (Homo sapiens, UniProt Q15116); assay: Jurkat-PD-1 Cell Binding High-Content Screening Assay (CBA); assay type: cell-based; conditions: Jurkat HPD1_PDL1 IC50, Jurkat-PD-1 cells, PE-labeled PD-L1-Ig 20 nM final
T1 construct: expressed in transfected cells; host or cells: Jurkat
T1 sequence (Q15116 25-288): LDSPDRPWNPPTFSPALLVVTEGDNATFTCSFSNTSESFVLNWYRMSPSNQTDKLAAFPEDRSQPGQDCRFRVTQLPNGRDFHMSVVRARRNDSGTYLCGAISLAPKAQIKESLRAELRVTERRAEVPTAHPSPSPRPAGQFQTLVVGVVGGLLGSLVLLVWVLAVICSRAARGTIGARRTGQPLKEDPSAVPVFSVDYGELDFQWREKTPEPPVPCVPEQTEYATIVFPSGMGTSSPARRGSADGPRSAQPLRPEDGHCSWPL
In short: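 Read-out: high-content imaging of PE-tagged PD-L1-Ig bound to Jurkat cells overexpressing human PD-1, after fixation with 4% paraformaldehyde and Hoechst 33342 nuclear staining. Ligand was used at 20 nM final for 1 hour, after a 2 h compound exposure at 37° C in serum-containing DMEM.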

SMILES | IC50
CC(C)C[C@H]1NC(=O)[C@H](CCCN)NC(=O)[C@H](CCCNC(N)=O)NC(=O)[C@H](Cc2ccc(-c3ccccc3)cc2)NC(=O)[C@H](C(C)C)NC(=O)[C@H](Cc2c[nH]c3ccccc23)NC(=O)[C@H](CC(=O)O)NC(=O)[C@H](Cc2ccc(C(=O)O)cc2)NC(=O)[C@H](Cc2ccc(OCC(=O)O)cc2)NC(=O)CSC[C@@H](C(=O)N[C@@H](C)C(N)=O)NC(=O)[C@H]([C@@H](C)O)NC(=O)[C@H](C(C)C)NC(=O)[C@H](Cc2ccccc2)NC(=O)[C@H](CCN)NC1=O [Compound 1664] ({CH2CO}-Y(Carboxymethyl)[Phe(4-COOH)]DWV[Bip][Cit][Orn][dL][Dab]FVTCA-NH2; thioether N-14) | 36.3 nM

same assay, conditions: Jurkat-PD-1 cells, PE-labeled PD-L1-Ig 20 nM final; read-out: Jurkat HPD1_PDL1 IC50

SMILES | IC50
CC(C)C[C@@H]1NC(=O)[C@H](CCN)NC(=O)[C@@H](CC(C)C)NC(=O)[C@H](CC(N)=O)NC(=O)[C@H](C(C)C)NC(=O)[C@H](Cc2ccc(-c3ccccc3)cc2)NC(=O)[C@H](C(C)C)NC(=O)[C@H](Cc2c[nH]c3ccccc23)NC(=O)[C@H](CC(=O)O)NC(=O)[C@H](Cc2ccc(O)cc2)NC(=O)[C@H](CC(N)=O)NC(=O)CSC[C@@H](C(=O)N[C@@H](C)C(N)=O)NC(=O)[C@H]([C@@H](C)O)NC(=O)[C@H](C(C)C)NC1=O [Compound 1036] ({CH2CO}-NYDWV[Bip]VN[dL][Dab]LVTCA-NH2; thioether N-14) | 26.4 nM
Cc1cccc(C[C@@H]2NC(=O)[C@H](CC(=O)O)NC(=O)[C@H](Cc3ccc(C(=O)O)cc3)NC(=O)[C@H](Cc3ccc(OCC(=O)O)cc3)NC(=O)CSC[C@@H](C(=O)N[C@@H](C)C(N)=O)NC(=O)[C@H]([C@@H](C)O)NC(=O)[C@H](C(C)C)NC(=O)[C@H](CC3CCCCC3)NC(=O)[C@H](CCN)NC(=O)[C@@H](CC(C)C)NC(=O)[C@H](CCCN)NC(=O)[C@H](CCN)NC(=O)[C@H](Cc3ccc(-c4ccccc4)cc3)NC(=O)[C@H](C(C)C)NC2=O)c1 [Compound 1415] | 13.8 nM
CC(C)C[C@@H]1NC(=O)[C@H](Cc2c[nH]c3ccccc23)NC(=O)[C@H](CC(=O)O)NC(=O)[C@H](Cc2ccc(C(=O)O)cc2)NC(=O)[C@H](Cc2ccc(OCC(=O)O)cc2)NC(=O)CSC[C@@H](C(=O)NCC(N)=O)NC(=O)[C@H](CO)NC(=O)[C@H](C(C)C)NC(=O)[C@H](CC(C)C)NC(=O)[C@H](CC(N)=O)NC(=O)[C@@H](CC(C)C)NC(=O)[C@H](CCN)NC(=O)[C@H](C(C)C)NC(=O)[C@H](Cc2ccc(-c3ccccc3)cc2)NC1=O [Compound 1279] ({CH2CO}-Y(Carboxymethyl)[Phe(4-COOH)]DWL[Bip]V[Dab][dL]NLVSCG-NH2; thioether N-14) | 13.6 nM
CC[C@H](C)[C@@H]1NC(=O)[C@H](CCN)NC(=O)[C@@H](CC(C)C)NC(=O)[C@H](CCCN)NC(=O)[C@H](CCCNC(N)=O)NC(=O)[C@H](Cc2ccc(-c3ccccc3)cc2)NC(=O)[C@H](C(C)C)NC(=O)[C@H](Cc2c[nH]c3ccccc23)NC(=O)[C@H](CC(=O)O)NC(=O)[C@H](Cc2ccc(OCC(=O)O)cc2)NC(=O)[C@H](CN)NC(=O)CSC[C@@H](C(=O)N[C@@H](C)C(N)=O)NC(=O)[C@H]([C@@H](C)O)NC(=O)[C@H](C(C)C)NC1=O [Compound 1317] ({CH2CO}-[Dap]Y(Carboxymethyl)DWV[Bip][Cit][Orn][dL][Dab]IVTCA-NH2; thioether N-14) | 912 nM
CCCC[C@H]1NC(=O)[C@H](CCCN)NC(=O)[C@H]([C@@H](C)CC)NC(=O)[C@H](Cc2ccc(-c3ccccc3)cc2)NC(=O)[C@H](C(C)C)NC(=O)[C@H](Cc2c[nH]c3ccccc23)NC(=O)[C@H](CC(=O)O)NC(=O)[C@H](Cc2ccc(C(=O)O)cc2)NC(=O)[C@H](Cc2ccncc2)NC(=O)CSC[C@@H](C(=O)N[C@@H](C)C(N)=O)NC(=O)[C@H]([C@@H](C)O)NC(=O)[C@H](C(C)C)NC(=O)[C@H](CC2CCCCC2)NC(=O)[C@H](CCN)NC1=O [Compound 1705] | 14.3 nM
CC(C)C[C@H]1NC(=O)[C@H](CN)NC(=O)[C@H](C(C)C)NC(=O)[C@H](Cc2ccc(-c3ccccc3)cc2)NC(=O)[C@H](C(C)C)NC(=O)[C@H](Cc2c[nH]c3ccccc23)NC(=O)[C@H](CC(=O)O)NC(=O)[C@H](Cc2ccc(OCC(=O)O)cc2)NC(=O)[C@H](CN)NC(=O)CSC[C@@H](C(=O)NCC(N)=O)NC(=O)[C@H](CO)NC(=O)[C@H](C(C)C)NC(=O)[C@H](CC2CCCCC2)NC(=O)[C@H](CC(N)=O)NC1=O [Compound 1652] ({CH2CO}-[Dap]Y(Carboxymethyl)DWV[Bip]V[Dap][dL]N[Cha]VSCG-NH2; thioether N-14) | 20.3 nM
CC(C)C[C@@H]1NC(=O)[C@H](CCN)NC(=O)[C@@H](CC(C)C)NC(=O)[C@H](CC(C)C)NC(=O)[C@H](C(C)C)NC(=O)[C@H](Cc2ccc(-c3ccccc3)cc2)NC(=O)[C@H](C(C)C)NC(=O)[C@H](Cc2c[nH]c3ccccc23)NC(=O)[C@H](CC(=O)O)NC(=O)[C@H](Cc2ccc(O)cc2)NC(=O)[C@H](CC(N)=O)NC(=O)CSC[C@@H](C(=O)N[C@@H](C)C(N)=O)NC(=O)[C@H]([C@@H](C)O)NC(=O)[C@H](C(C)C)NC1=O [Compound 1037] ({CH2CO}-NYDWV[Bip]VL[dL][Dab]LVTCA-NH2; thioether N-14) | 53.9 nM
CC(C)C[C@H]1NC(=O)[C@H](CCCN)NC(=O)[C@H](CCC(=O)O)NC(=O)[C@H](Cc2ccc(-c3ccccc3)cc2)NC(=O)[C@H](C(C)C)NC(=O)[C@H](Cc2c[nH]c3ccccc23)NC(=O)[C@H](CC(=O)O)NC(=O)[C@H](Cc2ccc(N)cc2)NC(=O)[C@H](CC(N)=O)NC(=O)CSC[C@@H](C(=O)N[C@@H](C)C(N)=O)NC(=O)[C@H]([C@@H](C)O)NC(=O)[C@H](C(C)C)NC(=O)[C@H](CC2CCCCC2)NC(=O)[C@H](CCN)NC1=O [Compound 2180] ({CH2CO}-N[Phe(4-NH2)]DWV[Bip]E[Orn][dL][Dab][Cha]VTCA-NH2; thioether N-14) | 28.1 nM
CC(C)C[C@H]1NC(=O)[C@H](CCCN)NC(=O)[C@H](CCC(=O)O)NC(=O)[C@H](Cc2ccc(-c3ccccc3)cc2)NC(=O)[C@H](C2CCCCC2)NC(=O)[C@H](Cc2c[nH]c3ccccc23)NC(=O)[C@H](CC(=O)O)NC(=O)[C@H](Cc2ccc(OCC(=O)O)cc2)NC(=O)[C@H](CN)NC(=O)CSC[C@@H](C(=O)N[C@@H](C)C(N)=O)NC(=O)[C@H]([C@@H](C)O)NC(=O)[C@H](C(C)C)NC(=O)[C@H](CC2CCCCC2)NC(=O)[C@H](CCN)NC1=O [Compound 1714] ({CH2CO}-[Dap]Y(Carboxymethyl)DW[Chg][Bip]E[Orn][dL][Dab][Cha]VTCA-NH2; thioether N-14) | 37.6 nM
Cc1cccc(C[C@@H]2NC(=O)[C@H](CC(=O)O)NC(=O)[C@H](Cc3ccc(OCC(=O)O)cc3)NC(=O)[C@H](Cc3ccncc3)NC(=O)CSC[C@@H](C(=O)N[C@@H](CCN)C(N)=O)NC(=O)[C@H](CO)NC(=O)[C@H](C(C)(C)O)NC(=O)[C@H](CC3CCCCC3)NC(=O)[C@H](CCN)NC(=O)[C@@H](CC(C)C)NC(=O)C(C3CCNCC3)NC(=O)[C@H](Cc3ccc(OCC(=O)O)cc3)NC(=O)[C@H](Cc3ccc(-c4ccccc4)cc3)NC(=O)[C@H](Cc3ccc(OCC(=O)O)cc3)NC2=O)c1 (mixture of isomers) [Compound 2084] | 209 nM
CC(C)C[C@H]1NC(=O)[C@H](CCCN)NC(=O)[C@H](CCC(=O)O)NC(=O)[C@H](Cc2ccc(-c3ccccc3)cc2)NC(=O)[C@H](C(C)C)NC(=O)[C@H](Cc2c[nH]c3ccccc23)NC(=O)[C@H](CC(=O)O)NC(=O)[C@H](Cc2cccs2)NC(=O)[C@H](Cc2ccccc2)NC(=O)CSC[C@@H](C(=O)N[C@@H](C)C(N)=O)NC(=O)[C@H]([C@@H](C)O)NC(=O)[C@H](C(C)C)NC(=O)[C@H](CC2CCCCC2)NC(=O)[C@H](CCN)NC1=O [Compound 2191] ({CH2CO}-F[2Thi]DWV[Bip]E[Orn][dL][Dab][Cha]VTCA-NH2; thioether N-14) | 59.5 nM
CCCC[C@@H]1NC(=O)[C@H](CCN)NC(=O)[C@@H](CC(C)C)NC(=O)[C@H](CCCN)NC(=O)[C@H](C(C)C)NC(=O)[C@H](Cc2ccc(-c3ccccc3)cc2)NC(=O)[C@H](C(C)C)NC(=O)[C@H](Cc2c[nH]c3ccccc23)NC(=O)[C@H](CC(=O)O)NC(=O)[C@H](Cc2ccc(O)cc2)NC(=O)[C@H](CN)NC(=O)CSC[C@@H](C(=O)N[C@@H](C)C(N)=O)NC(=O)[C@H]([C@@H](C)O)NC(=O)[C@H](C(C)C)NC1=O [Compound 1169] ({CH2CO}-[Dap]YDWV[Bip]V[Orn][dL][Dab][Nle]VTCA-NH2; thioether N-14) | 20.7 nM
CC[C@H](C)[C@@H]1NC(=O)[C@H](Cc2ccc(-c3ccccc3)cc2)NC(=O)[C@H](C2CCCCC2)NC(=O)[C@H](Cc2c[nH]c3ccccc23)NC(=O)[C@H](CC(=O)O)NC(=O)[C@H](Cc2ccc(OCC(=O)O)cc2)NC(=O)[C@H](CN)NC(=O)CSC[C@@H](C(=O)N[C@@H](C)C(N)=O)NC(=O)[C@H]([C@@H](C)O)NC(=O)[C@H](C(C)C)NC(=O)[C@H](CC2CCCCC2)NC(=O)[C@H](CCN)NC(=O)[C@@H](CC(C)C)NC(=O)[C@H](CCCN)NC1=O [Compound 1722] ({CH2CO}-[Dap]Y(Carboxymethyl)DW[Chg][Bip]I[Orn][dL][Dab][Cha]VTCA-NH2; thioether N-14) | 27.5 nM
C#CC[C@H](NC(=O)[C@H](CCN)NC(=O)[C@@H]1CSCC(=O)N[C@@H](CC(C)C)C(=O)N[C@@H](Cc2ccc(OCC(=O)O)cc2)C(=O)N[C@@H](CC(=O)O)C(=O)N[C@@H](Cc2cccc(C)c2)C(=O)N[C@@H](Cc2ccc(OCC(=O)O)cc2)C(=O)N[C@@H](Cc2ccc(-c3ccccc3)cc2)C(=O)N[C@@H](Cc2ccc(OCC(=O)O)cc2)C(=O)N[C@@H](CCCN)C(=O)N[C@H](CC(C)C)C(=O)N[C@@H](CCN)C(=O)N[C@@H](CC2CCCCC2)C(=O)N[C@@H](C(C)C)C(=O)N[C@@H](CCC(=O)O)C(=O)N1)C(=O)O [Compound 2707] ({CH2CO}-LY(Carboxymethyl)D[Phe(3-Me)]Y(Carboxymethyl)[Bip]Y(Carboxymethyl)[Orn][dL][Dab][Cha]VEC[Dab][Pra]-OH; thioether N-14) | 5 nM
